Measurements published in ChEMBL document CHEMBL1201862, “PubChem BioAssay data set” (2004).
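Compound exposure: 48 hours, 5 concentrations, 96-well plates. Abbreviation: GI50, concentration required for 50% inhibition of growth.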 Active and inactive are the calls of the source. Cut-off read from the data, not from the text of the source: active = GI50 up to about 1.1 µM and inactive = higher.

How the values were obtained:
Experiment in all cases: DTP human tumour cell line panel, 48 h
RXF 393 = tested on: RXF 393
HOP-92 = tested on: HOP-92
OVCAR-4 = tested on: OVCAR-4
HOP-62 = tested on: HOP-62
OVCAR-8 = tested on: OVCAR-8
CAKI-1 = tested on: CAKI-1
SK-MEL-2 = tested on: SK-MEL-2
SF-268 = tested on: SF-268
HCT-116 = tested on: HCT-116
NCI-H460 = tested on: NCI-H460
UO-31 = tested on: UO-31
OVCAR-3 = tested on: OVCAR-3
HT-29 = tested on: HT-29
HCT-15 = tested on: HCT-15
SR = tested on: SR
MOLT-4 = tested on: MOLT-4
OVCAR-5 = tested on: OVCAR-5
RPMI-8226 = tested on: RPMI-8226

CCOC(=O)C1=C(Nc2ccc(Br)cc2)OCC1=O
GI50 (RXF 393): > 100 µM (inactive)
GI50 (HOP-92): > 100 µM (inactive)
GI50 (OVCAR-4): > 100 µM (inactive)
GI50 (HOP-62): > 100 µM (inactive)
GI50 (OVCAR-8): > 100 µM (inactive)
GI50 (CAKI-1): > 100 µM (inactive)
GI50 (SK-MEL-2): > 100 µM (inactive)
GI50 (SF-268): > 100 µM (inactive)
GI50 (HCT-116): > 100 µM (inactive)
GI50 (NCI-H460): > 100 µM (inactive)
GI50 (UO-31): > 100 µM (inactive)
GI50 (OVCAR-3): > 100 µM (inactive)
GI50 (HT-29): > 100 µM (inactive)
GI50 (HCT-15): > 100 µM
GI50 (SR): > 100 µM (inactive)
GI50 (MOLT-4): > 100 µM (inactive)

Oc1ccc2c3c1OC1C(=NN=C4CCC5(O)C6Cc7ccc(O)c8c7C5(CCN6CC5CC5)C4O8)CCC4(O)C(C2)N(CC2CC2)CCC314 (configuration not stated)
GI50 (RXF 393): 40 µM (inactive)
GI50 (HOP-92): 21.1 µM (inactive)
GI50 (OVCAR-4): 25.6 µM (inactive)
GI50 (HOP-62): 30.3 µM (inactive)
GI50 (OVCAR-5): > 100 µM (inactive)
GI50 (OVCAR-8): 28.5 µM (inactive)
GI50 (RPMI-8226): 28.8 µM (inactive)
GI50 (CAKI-1): > 100 µM (inactive)
GI50 (SK-MEL-2): 13.9 µM (inactive)
GI50 (SF-268): > 50.4 µM (inactive)
GI50 (HCT-116): 16.6 µM (inactive)
GI50 (NCI-H460): 21.6 µM (inactive)
GI50 (UO-31): > 100 µM (inactive)
GI50 (OVCAR-3): 18.5 µM (inactive)
GI50 (HT-29): 17.1 µM (inactive)
GI50 (HCT-15): > 100 µM
GI50 (SR): 26.7 µM (inactive)
GI50 (MOLT-4): 23.7 µM (inactive)

COc1ccc(OC)c(NC(=O)CCC/C(CC(=O)c2ccc(O)c(OC)c2)=N\Nc2ccc([N+](=O)[O-])cc2)c1
GI50 (RXF 393): 19 µM (inactive)
GI50 (HOP-92): 34.3 µM (inactive)
GI50 (OVCAR-4): > 100 µM (inactive)
GI50 (HOP-62): 69.5 µM (inactive)
GI50 (OVCAR-5): > 100 µM (inactive)
GI50 (OVCAR-8): 28.2 µM (inactive)
GI50 (RPMI-8226): > 100 µM (inactive)
GI50 (CAKI-1): > 100 µM (inactive)
GI50 (SK-MEL-2): 51.8 µM (inactive)
GI50 (SF-268): > 100 µM (inactive)
GI50 (HCT-116): > 100 µM (inactive)
GI50 (NCI-H460): > 100 µM (inactive)
GI50 (UO-31): 83 µM (inactive)
GI50 (OVCAR-3): > 100 µM (inactive)
GI50 (HT-29): > 100 µM (inactive)
GI50 (HCT-15): > 100 µM
GI50 (SR): > 100 µM (inactive)
GI50 (MOLT-4): > 100 µM (inactive)

NC1=NN(c2ccccc2)C(=O)C1C(=O)C(=O)Nc1nccs1 (configuration not stated)
GI50 (RXF 393): > 100 µM (inactive)
GI50 (HOP-92): > 100 µM (inactive)
GI50 (OVCAR-4): > 100 µM (inactive)
GI50 (HOP-62): > 100 µM (inactive)
GI50 (OVCAR-5): > 100 µM (inactive)
GI50 (OVCAR-8): > 100 µM (inactive)
GI50 (RPMI-8226): > 100 µM (inactive)
GI50 (CAKI-1): > 100 µM (inactive)
GI50 (SK-MEL-2): > 100 µM (inactive)
GI50 (SF-268): > 100 µM (inactive)
GI50 (HCT-116): > 100 µM (inactive)
GI50 (NCI-H460): > 100 µM (inactive)
GI50 (UO-31): > 100 µM (inactive)
GI50 (OVCAR-3): > 100 µM (inactive)
GI50 (HT-29): > 100 µM (inactive)
GI50 (HCT-15): > 100 µM
GI50 (SR): > 100 µM (inactive)
GI50 (MOLT-4): > 100 µM (inactive)

O=C1O/C(=C(\Br)c2cccc3ccccc23)c2ccccc21
GI50 (RXF 393): > 49 µM (inactive)
GI50 (HOP-92): 29 µM (inactive)
GI50 (OVCAR-4): 16.5 µM (inactive)
GI50 (HOP-62): > 100 µM (inactive)
GI50 (OVCAR-5): > 40.2 µM (inactive)
GI50 (OVCAR-8): > 43.7 µM (inactive)
GI50 (RPMI-8226): 22.2 µM (inactive)
GI50 (SK-MEL-2): > 42.8 µM (inactive)
GI50 (SF-268): > 37.5 µM (inactive)
GI50 (HCT-116): 31.4 µM (inactive)
GI50 (NCI-H460): > 53.6 µM (inactive)
GI50 (UO-31): > 41.3 µM (inactive)
GI50 (OVCAR-3): 26.8 µM (inactive)
GI50 (HT-29): 22.5 µM (inactive)
GI50 (HCT-15): 31.3 µM
GI50 (SR): 19.7 µM (inactive)
GI50 (MOLT-4): 21.5 µM (inactive)

Cc1ccc2nc(NC(=O)C(=O)C(C(=O)c3ccc4ccccc4c3)C3OC(=O)c4ccccc43)sc2c1 (configuration not stated)
GI50 (RXF 393): 1.87 µM (inactive)
GI50 (HOP-92): 3.53 µM (inactive)
GI50 (OVCAR-4): 22.7 µM (inactive)
GI50 (HOP-62): 11 µM (inactive)
GI50 (OVCAR-5): 11.6 µM (inactive)
GI50 (OVCAR-8): 7.74 µM (inactive)
GI50 (RPMI-8226): 9.25 µM (inactive)
GI50 (CAKI-1): 12.2 µM (inactive)
GI50 (SK-MEL-2): 14.4 µM (inactive)
GI50 (SF-268): 8.3 µM (inactive)
GI50 (HCT-116): 5.6 µM (inactive)
GI50 (NCI-H460): 4.43 µM (inactive)
GI50 (UO-31): 14.6 µM (inactive)
GI50 (OVCAR-3): 22.9 µM (inactive)
GI50 (HT-29): 15.2 µM (inactive)
GI50 (HCT-15): > 10 µM
GI50 (SR): 3.33 µM (inactive)

COc1ccc(-c2cc(=O)c3ccccc3[nH]2)c(OC)c1
GI50 (RXF 393): > 100 µM (inactive)
GI50 (HOP-62): > 100 µM (inactive)
GI50 (OVCAR-8): > 100 µM (inactive)
GI50 (RPMI-8226): > 100 µM (inactive)
GI50 (SF-268): > 100 µM (inactive)
GI50 (HCT-116): > 100 µM (inactive)
GI50 (NCI-H460): > 100 µM (inactive)
GI50 (UO-31): > 100 µM (inactive)
GI50 (OVCAR-3): > 100 µM (inactive)
GI50 (HT-29): > 100 µM (inactive)
GI50 (HCT-15): > 100 µM
GI50 (SR): > 100 µM (inactive)
GI50 (MOLT-4): > 100 µM (inactive)

CC(=O)O[C@H]1CC[C@@]2(C)C(=CC[C@@H]3C2CC[C@]2(C)Nc4[nH]ncc4CC32)C1 (some centres not stated)
GI50 (RXF 393): 30.4 µM (inactive)
GI50 (OVCAR-4): 18.5 µM (inactive)
GI50 (HOP-62): > 100 µM (inactive)
GI50 (OVCAR-5): > 100 µM (inactive)
GI50 (OVCAR-8): 29.9 µM (inactive)
GI50 (RPMI-8226): 25.5 µM (inactive)
GI50 (CAKI-1): > 100 µM (inactive)
GI50 (SK-MEL-2): 28.2 µM (inactive)
GI50 (HCT-116): 16.4 µM (inactive)
GI50 (NCI-H460): 17.3 µM (inactive)
GI50 (UO-31): 87.7 µM (inactive)
GI50 (OVCAR-3): 19.2 µM (inactive)
GI50 (HT-29): 16.9 µM (inactive)
GI50 (HCT-15): 17.5 µM
GI50 (MOLT-4): 15.4 µM (inactive)
